Where “and” joins values, the source holds several entries; their conditions need not be identical. Identical values can stand only once.
Columns and labels:
[1] = tested on: cultured fibroblasts; experiment: Non-specific effects on cultured fibroblasts; format: cell-based
Description: (§1) At concentrations over 80 nM, HF has a variety of non-specific effects on both T-cells and fibroblasts. […] At the recommended tolerated dose for chronic treatment (0.5 mg/day), plasma levels of HF were ˜0.5 ng/ml (1 nM). (de.Jonge et al., Eur J Cancer, vol. 42(12):1768-74 (2006)).

[2] = tested on: T-cells and fibroblasts; experiment: Effects on pro-inflammatory and pro-fibrotic gene expression in T-cells and fibroblasts in vitro; format: cell-based
Description: as §1
In T-cells and fibroblasts in vitro, HF has highly specific effects on pro-inflammatory and pro-fibrotic gene expression in a dose range of ˜2-40 nM. At doses>80 nM, non-specific effects on protein synthesis and cell proliferation are seen. The compositions are formulated to deliver a dosage of HF that will have specific effects on pro-inflammatory cytokine expression or ECM architecture in the 2-40 nM range, but keep the dosage below levels that can cause non-specific effects.

[3] = tested on: Th17 differentiation of CD4+ CD25− T cells; experiment: Th17 differentiation (IL-17+ IFNγ− cells) of T cells activated with TGFβ plus IL-6; format: cell-based, mouse
Description: Low doses of halofuginone (HF) were tested to determine the ability of HF to enhance Treg differentiation, while suppressing Th17 differentiation. Nave. CD4+ T cells (CD4+ CD25−) were isolated from the spleen and peripheral lymph nodes of C57B/6 mice. T cells were then activated using anti-CD3 (0.3 μg/ml) and anti-CD28 (0.5 μg/ml) antibodies either in media alone (row 1, 4), TGFβ alone (3 ng/ml—row 2, 5) or TGFβ (3 ng/ml) plus IL-6 (30 ng/ml) (row 3, 6). […] T cells were cultured for 3 days and CD25 and Foxp3 expression (Treg marker genes) was determine by FACS staining and flow cytometric analyses. Simultaneously, T cells were harvested and re-stimulated for 4 hours using phorbol myristic acetate (PMA; 10 nM), Ionomycin (1 μM) and cytokine secretion was prevented using brefeldin A (20 μg/ml). Following stimulation, the production of IL-17 and IFNγ were determined by intracellular staining and analyzed via flow cytometry.
The dose-response of HF on CD4+ T cell proliferation, activation (i.e. CD25 upregulation) and differentiation to Th1, Th2 and Th17 lineages were evaluated. Purified murine naïve CD4+ CD25− T cells were activated using anti-CD3 (0.3 μg/ml) and anti-CD28 (0.5 μg/ml) antibodies and varying amounts of HF was added to each T cell culture condition (1.25 nM-40 nM). CD4+ T cell proliferation was monitored by CFSE dilution on day 3-post activation and CD25 expression was evaluated by FACS staining 2 days after activation. For T cell differentiation experiments, naïve T cells were activated as above in the presence of Th1 (IL-12 (20 ng/ml) plus anti-IL-4 (10 μg/ml)), Th2 (IL-4 (50 ng/ml) plus anti-IFNγ (0.5 mg/ml)) or Th17 (TGFβ (3 ng/ml) plus IL-6 (30 ng/ml)) polarizing conditions plus titrating amounts of HF (1.25 nM-40 nM) or MAZ1310 (40 nM). The percentage of Th17 cells, (IL-17^+ IFNγ^−) was evaluated on day 3 following activation, whereas the abundance of Th1 cells (IFNγ^+ IL-4) and Th2 cells (IL-4^+ IFNγ^−) was determined 5 days following activation. All cytokine expression was determined by intracellular staining following PMA+Ionomycin+Brefeldin A re-stimulation and all data was normalized to control (MAZ1310)-treated cells. […] Biol., vol. 80:1-8 (2006).
Cytokines, antibodies and T cell culture: Purified CD4^+ CD25^− T cells were activated in vitro as previously described (I. M. Djuretic et al., Nat Immunol 8, 145 (2007)) using 0.3 μg/ml hamster anti-mouse CD3 (clone 145-2C11) (ATCC—Manassas, Va.) and 0.5 μg/ml hamster anti-mouse CD28 (BD Pharmingen, San Jose, Calif.). Activated cell cultures were differentiated using the following combinations of cytokines and antibodies: iTreg=recombinant human TGFβ1 (3 ng/ml; R&D systems, Minneapolis, Minn.), Th17βTGFβ1 (3 ng/ml) plus recombinant mouse IL-6 (30 ng/ml, R&D systems). Th1 and Th2 differentiation was performed as previously described. (I. M. Djuretic et al., Nat Immunol 8, 145 (2007)). Human IL-2 supernatant (National Cancer Institute) was used in culture at 0.01 U/ml and was added at 48 hours-post activation when T cells were split into tissue culture wells lacking CD3 and CD28 antibodies, with the exception of Th17 cultures that were maintained in the absence of IL-2. All reagents were added at the time of T cell activation and again at 48-hours post activation unless indicated otherwise. For some experiments, purified CD4^+ CD25^− T cells, CD8^+ T cells or B cells were labeled with 1 μM CFSE (Invitrogen) prior to activation in accordance with manufacturers instructions.
Detection of cytokine production: Cytokines secreted into media supernatant were measured using the mouse Th1/Th2 cytometric bead array (CBA, BD Pharmingen) in accordance with manufacturers instructions.

For `O=C(CC1NCCCC1O)Cn1cnc2cc(Br)c(Cl)cc2c1=O` (racemic) [HF, 7-bromo-6-chloro-3-[3-(3-hydroxy-2-piperidinyl)-2-oxopropyl]-4(3H)-quinazolinone], the “concentration inhibiting protein synthesis and cell proliferation in fibroblast culture” value [1] was “over 80 nM”, the “signaling downstream of mTOR in fibroblasts, in words” value [1] was “did not inhibit signaling downstream of mTOR” and the “death of cultured fibroblasts, in words” value ([1]; doses up to 500 nM over 5 days) was “does not, however, cause death”. For the same molecule, the “dose range of highly specific effects on pro-inflammatory and pro-fibrotic gene expression” value [2] was 2 to 40 nM, the “time of addition giving most pronounced inhibition of IL-17 expression, in words” value ([3]; 10 nM HF added at indicated times after activation) was “most pronounced when HF was added during a 12-hour window at the start of the culture period” and the “effect on Il17 and Il17f mRNA expression, in words” value ([3]; 10 nM HF, 4 days, Th17 cytokine conditions) was “impaired expression of both Il17 and Il17f mRNA”. For the same molecule, the “IL-17 expression in T cells lacking Foxp3, in words” value ([3]; 10 nM HF, Foxp3 KO naïve CD4+ T cells, TGFβ plus IL-6) was “strongly repressed IL-17 expression”, the “Th17 differentiation of T cells expressing STAT3C, in words” value ([3]; 10 nM HF, STAT3C-GFP+ cells) was “remained capable of differentiating into Th17 cells” and the “Th17 differentiation of cells expressing YFP or no transgene, in words” value ([3]; 5-10 nM HF, TAT-Cre treated T cells) was “strongly impaired”. For the same molecule, the “fold lower doses for effects on Th17 differentiation versus general inhibition of T-cell proliferation and Th1/Th2 differentiation” value ([3]; FIG. 7) was 5- to 10 fold and ~10 fold, the “Th17 differentiation in T cells transduced with RORγt-expressing versus empty retroviruses, in words” value ([3]; MIG.RORγt vs MIG) was “inhibited Th17 differentiation as effectively” and the IC50 ([3]; Mus musculus, T-cell, in vitro, read-out: concentration for 50% inhibition of Th17 cell development) was about 3 nM. The “concentration window of specific inhibition of Th17 differentiation” value ([3]; exogenously added HF, TGFbeta in the presence of IL-6) was 2 to 30 nM.

Source: patent US20110212100A1, “METHODS FOR MODULATING DEVELOPMENT AND EXPANSION OF IL-17 EXPRESSING CELLS” (priority 2007, published 2011)
